# Measurements from patent US20060063755A1, “Loxapine analogs and methods of use thereof” (priority 2004, published 2006).
# Like-named read-outs stand apart in the source and are kept apart here.
# Columns and labels:
# male Wistar rats = assay: Sleep-wakefulness monitoring (SCORE-2000, EEG/EMG) after oral dosing at CT-18; type: in vivo, rat
# Method: Food and water were available ad libitum.
# Treatments were administered orally as a bolus.
# A parallel group study design was employed.
# The results of NREM and LUSB parameters were measured for the loxapine derivatives such as Compounds 1, 2, 3, 5, 6, 7, 8, 9, 10, 12, 14, 17, 19, 20, 21, 23, 30, 31, 32, 39, 40, 42, 46, 50, 51, 52, 54, 56, and 58 and other compounds listed in Table 1.
# hERG channel = hERG channel (Homo sapiens, UniProt Q12809); assay: hERG channel current block, whole cell recording in HEK293 cells; type: cell-based; settings: HEK293 cells expressing hERG
# Chain of hERG channel (Q12809 whole entry): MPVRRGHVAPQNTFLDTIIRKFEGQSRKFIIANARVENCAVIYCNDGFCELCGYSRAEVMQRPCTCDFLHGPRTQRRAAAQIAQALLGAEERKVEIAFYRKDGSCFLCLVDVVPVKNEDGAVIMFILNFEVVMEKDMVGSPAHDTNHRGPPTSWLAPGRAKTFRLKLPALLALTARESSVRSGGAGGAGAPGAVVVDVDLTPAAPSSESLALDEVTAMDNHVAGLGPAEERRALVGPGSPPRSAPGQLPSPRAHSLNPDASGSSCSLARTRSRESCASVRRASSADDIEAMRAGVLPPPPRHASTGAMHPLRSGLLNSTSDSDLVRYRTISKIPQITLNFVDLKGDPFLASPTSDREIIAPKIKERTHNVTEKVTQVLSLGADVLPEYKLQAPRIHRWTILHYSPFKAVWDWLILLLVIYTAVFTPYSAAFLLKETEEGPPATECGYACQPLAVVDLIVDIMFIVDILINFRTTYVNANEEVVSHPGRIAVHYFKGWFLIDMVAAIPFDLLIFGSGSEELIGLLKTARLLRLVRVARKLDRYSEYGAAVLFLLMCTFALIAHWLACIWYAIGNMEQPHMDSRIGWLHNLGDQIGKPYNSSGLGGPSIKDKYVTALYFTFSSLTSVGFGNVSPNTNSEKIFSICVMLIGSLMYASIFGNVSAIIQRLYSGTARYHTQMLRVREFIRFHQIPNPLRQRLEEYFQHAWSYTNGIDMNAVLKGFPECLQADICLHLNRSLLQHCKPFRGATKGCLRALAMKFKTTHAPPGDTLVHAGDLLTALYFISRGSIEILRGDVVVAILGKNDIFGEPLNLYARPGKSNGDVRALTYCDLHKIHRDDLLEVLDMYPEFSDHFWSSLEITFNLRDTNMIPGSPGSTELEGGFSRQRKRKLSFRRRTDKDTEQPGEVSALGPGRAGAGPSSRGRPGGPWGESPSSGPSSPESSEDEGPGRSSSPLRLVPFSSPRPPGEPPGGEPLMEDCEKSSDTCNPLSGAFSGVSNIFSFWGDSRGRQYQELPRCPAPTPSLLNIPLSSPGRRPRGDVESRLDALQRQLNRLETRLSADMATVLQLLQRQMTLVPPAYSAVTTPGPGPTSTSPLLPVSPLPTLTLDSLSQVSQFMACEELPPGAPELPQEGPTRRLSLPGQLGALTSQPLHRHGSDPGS
# Method: Other in vitro selection criteria for loxapine analogs of the invention includes hERG binding.
# (Brown and Rampe (2000)).
# In one embodiment of the HERG assay, the positive control (i.e., reference compound) is terfenadine (Sigma, St. Louis Mo.), which has been shown, at a concentration of 60 nM, to block HERG current by approximately 75%. Test compounds are delivered in HEPES-buffered physiological saline (HB-PS)+0.1% dimethyl sulfoxide (DMSO).
# Clin. Exp. Allergy 29 Suppl 3, 174-181.
# If the final DMSO concentration must be greater than 0.3%, to reach a specified test article concentration, a separate vehicle control test with an n>2 was performed at the highest final DMSO concentration.
# Each cell acted as its own control. […] One concentration of the positive control article (60 nM terfenadine) was applied to two cells (n≧2).
# H1 histamine receptor [1] = target: T1, H1 histamine receptor (Bos taurus, UniProt P30546); assay: H1 competitive binding assay, [3H]pyrilamine, bovine cerebellar membranes; settings: bovine cerebellar membrane
# T1 construct: the receptors were obtained from bovine cerebellar membrane tissue; from tissue; host or cells: bovine cerebellar membranes
# T1 sequence (P30546 whole entry): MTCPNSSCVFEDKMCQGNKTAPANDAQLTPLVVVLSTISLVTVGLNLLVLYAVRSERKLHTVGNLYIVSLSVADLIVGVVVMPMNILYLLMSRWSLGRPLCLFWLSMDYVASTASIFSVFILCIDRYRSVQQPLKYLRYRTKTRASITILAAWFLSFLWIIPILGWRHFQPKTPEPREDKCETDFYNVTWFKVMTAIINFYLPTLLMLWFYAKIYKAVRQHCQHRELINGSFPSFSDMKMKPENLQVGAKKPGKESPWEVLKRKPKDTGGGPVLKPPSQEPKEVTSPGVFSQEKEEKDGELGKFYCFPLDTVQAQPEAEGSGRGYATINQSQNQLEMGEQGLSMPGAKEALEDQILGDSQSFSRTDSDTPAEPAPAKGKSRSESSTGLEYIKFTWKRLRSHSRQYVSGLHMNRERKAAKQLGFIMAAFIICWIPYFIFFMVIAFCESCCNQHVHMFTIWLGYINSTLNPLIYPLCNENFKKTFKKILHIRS
# H1 histamine receptor [2] = target: H1 histamine receptor (Rattus norvegicus, UniProt P31390); assay: H1 binding, rat (footnote of Table 8)
# Chain of H1 histamine receptor (Rattus norvegicus, UniProt P31390) (P31390 whole entry): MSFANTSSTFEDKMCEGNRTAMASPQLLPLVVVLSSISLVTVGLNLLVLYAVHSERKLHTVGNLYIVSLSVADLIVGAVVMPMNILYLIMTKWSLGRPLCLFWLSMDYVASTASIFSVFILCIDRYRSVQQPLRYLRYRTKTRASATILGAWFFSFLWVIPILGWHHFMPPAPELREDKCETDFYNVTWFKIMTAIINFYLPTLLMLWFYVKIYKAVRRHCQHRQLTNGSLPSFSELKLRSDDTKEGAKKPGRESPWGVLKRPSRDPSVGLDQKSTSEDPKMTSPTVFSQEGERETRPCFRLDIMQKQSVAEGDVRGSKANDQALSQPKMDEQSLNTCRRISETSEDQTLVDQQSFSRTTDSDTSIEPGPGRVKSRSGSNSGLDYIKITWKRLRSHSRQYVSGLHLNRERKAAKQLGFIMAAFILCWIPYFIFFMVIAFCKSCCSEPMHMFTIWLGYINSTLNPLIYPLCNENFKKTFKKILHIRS
# Method: (§1) Binding assays were performed using the disclosed sleep-inducing agents and derivatives selected from those listed in Table 1 in competitive binding assays with known standards for the H1 histamine receptor, and the M1, M2, and M3 muscarinic receptors, alpha 1 and alpha 2 receptors, and D1 and D2 receptors.
# H1 histamine receptor [3] = target: H1 histamine receptor (Homo sapiens, UniProt P35367); assay: H1 binding, human (footnote of Table 8)
# Chain of H1 histamine receptor (Homo sapiens, UniProt P35367) (P35367 whole entry): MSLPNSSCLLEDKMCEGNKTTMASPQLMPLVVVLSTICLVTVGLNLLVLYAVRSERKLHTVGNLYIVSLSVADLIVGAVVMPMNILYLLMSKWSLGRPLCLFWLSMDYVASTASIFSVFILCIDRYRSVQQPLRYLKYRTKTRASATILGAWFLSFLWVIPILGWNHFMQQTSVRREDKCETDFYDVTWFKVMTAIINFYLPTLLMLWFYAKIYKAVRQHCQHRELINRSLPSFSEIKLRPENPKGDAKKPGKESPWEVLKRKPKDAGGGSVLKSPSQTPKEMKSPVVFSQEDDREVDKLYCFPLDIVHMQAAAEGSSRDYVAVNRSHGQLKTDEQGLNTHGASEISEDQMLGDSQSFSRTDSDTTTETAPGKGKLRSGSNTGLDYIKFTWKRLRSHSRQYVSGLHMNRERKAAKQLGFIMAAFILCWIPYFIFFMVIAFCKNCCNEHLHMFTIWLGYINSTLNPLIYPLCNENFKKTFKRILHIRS
# Method: as §1
# M1 muscarinic receptor [4] = target: T2, M1 muscarinic receptor (Homo sapiens, UniProt P11229); assay: M1 binding assay, [3H]-scopolamine N-methyl chloride, CHO cells; settings: human recombinant
# T2 construct: purchased PerkinElmer, Inc., Wellesley, Mass; host or cells: CHO cells
# T2 sequence (P11229 1-460): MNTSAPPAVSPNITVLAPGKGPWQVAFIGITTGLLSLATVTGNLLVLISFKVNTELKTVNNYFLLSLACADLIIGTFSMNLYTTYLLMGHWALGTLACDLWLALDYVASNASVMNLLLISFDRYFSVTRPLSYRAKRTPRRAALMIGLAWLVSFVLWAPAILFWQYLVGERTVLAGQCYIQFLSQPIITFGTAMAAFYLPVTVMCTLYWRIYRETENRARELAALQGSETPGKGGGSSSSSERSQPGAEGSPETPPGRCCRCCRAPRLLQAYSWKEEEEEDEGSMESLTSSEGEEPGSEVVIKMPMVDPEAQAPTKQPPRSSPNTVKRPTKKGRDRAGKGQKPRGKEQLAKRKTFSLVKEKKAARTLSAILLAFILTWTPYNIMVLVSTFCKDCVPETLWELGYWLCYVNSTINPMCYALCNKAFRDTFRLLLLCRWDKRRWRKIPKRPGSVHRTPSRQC
# M2 muscarinic receptor = target: T3, M2 muscarinic receptor (Homo sapiens, UniProt P08172); assay: M2 binding assay, [3H]-scopolamine N-methyl chloride, CHO cells; settings: human recombinant
# T3 construct: purchased PerkinElmer, Inc., Wellesley, Mass; host or cells: CHO cells
# T3 sequence (P08172 1-466): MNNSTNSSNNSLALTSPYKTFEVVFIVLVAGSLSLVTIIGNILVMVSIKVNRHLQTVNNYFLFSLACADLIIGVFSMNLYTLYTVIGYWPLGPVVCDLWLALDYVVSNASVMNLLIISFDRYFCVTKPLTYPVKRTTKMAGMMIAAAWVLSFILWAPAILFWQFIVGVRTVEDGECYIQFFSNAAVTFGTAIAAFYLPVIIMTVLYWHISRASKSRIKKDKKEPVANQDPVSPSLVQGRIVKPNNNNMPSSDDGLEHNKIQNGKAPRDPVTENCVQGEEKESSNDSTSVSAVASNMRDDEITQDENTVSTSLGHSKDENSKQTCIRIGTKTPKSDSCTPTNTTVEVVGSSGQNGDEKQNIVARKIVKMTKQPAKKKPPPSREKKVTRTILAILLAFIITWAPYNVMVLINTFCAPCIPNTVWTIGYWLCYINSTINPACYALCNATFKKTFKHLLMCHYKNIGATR
# M3 muscarinic receptor = target: T4, M3 muscarinic receptor (Homo sapiens, UniProt P20309); assay: M3 binding assay, [3H]-scopolamine N-methyl chloride, CHO cells; settings: human recombinant
# T4 construct: purchased PerkinElmer, Inc., Wellesley, Mass; host or cells: CHO cells
# T4 sequence (P20309 whole entry): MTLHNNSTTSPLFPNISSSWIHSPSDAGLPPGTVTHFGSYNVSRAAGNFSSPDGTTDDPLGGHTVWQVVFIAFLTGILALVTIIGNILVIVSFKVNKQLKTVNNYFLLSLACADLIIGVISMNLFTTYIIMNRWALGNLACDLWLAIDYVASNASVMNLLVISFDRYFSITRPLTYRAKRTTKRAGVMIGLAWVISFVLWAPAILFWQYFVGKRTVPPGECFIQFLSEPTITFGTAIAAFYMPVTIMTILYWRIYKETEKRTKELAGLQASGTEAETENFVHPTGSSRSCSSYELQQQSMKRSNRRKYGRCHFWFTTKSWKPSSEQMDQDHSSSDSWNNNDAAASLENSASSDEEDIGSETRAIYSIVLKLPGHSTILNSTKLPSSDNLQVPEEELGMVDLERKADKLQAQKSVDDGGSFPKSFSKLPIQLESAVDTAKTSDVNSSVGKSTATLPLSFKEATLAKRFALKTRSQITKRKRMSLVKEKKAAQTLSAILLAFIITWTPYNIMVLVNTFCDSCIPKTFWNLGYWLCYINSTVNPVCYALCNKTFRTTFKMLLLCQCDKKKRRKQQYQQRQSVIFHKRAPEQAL
# alpha 1 receptors = assay: Alpha 1 receptor binding assay; settings: read-out: Ki Alpha1
# Method: as §1
# alpha 2 receptors = assay: Alpha 2 receptor binding assay; settings: read-out: Ki Alpha2
# Method: as §1
# Dopamine, D1 [5] = target: Dopamine, D1 (Homo sapiens, UniProt P21728); assay: Dopamine D1 (human recombinant) binding assay
# Chain of Dopamine, D1 (Homo sapiens, UniProt P21728) (P21728 whole entry): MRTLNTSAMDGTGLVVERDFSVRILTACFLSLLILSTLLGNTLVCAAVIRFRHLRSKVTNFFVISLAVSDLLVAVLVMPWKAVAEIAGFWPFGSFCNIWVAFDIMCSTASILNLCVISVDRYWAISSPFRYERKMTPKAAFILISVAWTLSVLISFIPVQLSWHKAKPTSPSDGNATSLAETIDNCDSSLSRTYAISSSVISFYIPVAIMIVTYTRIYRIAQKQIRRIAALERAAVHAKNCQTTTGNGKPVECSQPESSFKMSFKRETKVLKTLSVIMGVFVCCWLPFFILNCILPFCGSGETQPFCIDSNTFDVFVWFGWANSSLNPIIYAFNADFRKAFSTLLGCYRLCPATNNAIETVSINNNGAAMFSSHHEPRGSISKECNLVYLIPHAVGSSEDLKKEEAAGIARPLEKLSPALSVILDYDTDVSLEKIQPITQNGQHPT
# Method: as §1
# Dopamine, D1 (human recombinant) binding assay was performed according to published procedures. See, e.g., Jarvie, et al. J. Recept Res., 13(1-4): 573-90 (1993); and Billard, et al. Life Sciences, 35(18): 1885-93 (1984), with modifications
# Dopamine, D1 [6] = target: Dopamine, D1 (Rattus norvegicus, UniProt P18901); assay: Dopamine D1 binding, rat
# Chain of Dopamine, D1 (Rattus norvegicus, UniProt P18901) (P18901 whole entry): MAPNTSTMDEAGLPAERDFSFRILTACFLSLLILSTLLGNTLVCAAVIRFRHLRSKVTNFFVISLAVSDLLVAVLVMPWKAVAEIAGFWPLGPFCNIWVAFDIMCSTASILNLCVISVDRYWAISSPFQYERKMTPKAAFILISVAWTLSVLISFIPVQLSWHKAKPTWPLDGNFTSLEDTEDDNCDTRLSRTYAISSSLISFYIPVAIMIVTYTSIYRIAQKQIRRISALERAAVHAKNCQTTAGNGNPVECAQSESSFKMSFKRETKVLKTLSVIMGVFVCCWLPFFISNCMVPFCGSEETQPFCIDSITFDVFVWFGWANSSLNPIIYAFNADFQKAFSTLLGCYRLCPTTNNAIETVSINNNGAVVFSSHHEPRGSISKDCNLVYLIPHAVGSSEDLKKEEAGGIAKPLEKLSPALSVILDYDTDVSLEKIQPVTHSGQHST
# Method: as §1
# D2 receptors [7] = target: D2 receptors (Homo sapiens, UniProt P14416); assay: Dopamine D2 binding assay (human)
# Chain of D2 receptors (Homo sapiens, UniProt P14416) (P14416 whole entry): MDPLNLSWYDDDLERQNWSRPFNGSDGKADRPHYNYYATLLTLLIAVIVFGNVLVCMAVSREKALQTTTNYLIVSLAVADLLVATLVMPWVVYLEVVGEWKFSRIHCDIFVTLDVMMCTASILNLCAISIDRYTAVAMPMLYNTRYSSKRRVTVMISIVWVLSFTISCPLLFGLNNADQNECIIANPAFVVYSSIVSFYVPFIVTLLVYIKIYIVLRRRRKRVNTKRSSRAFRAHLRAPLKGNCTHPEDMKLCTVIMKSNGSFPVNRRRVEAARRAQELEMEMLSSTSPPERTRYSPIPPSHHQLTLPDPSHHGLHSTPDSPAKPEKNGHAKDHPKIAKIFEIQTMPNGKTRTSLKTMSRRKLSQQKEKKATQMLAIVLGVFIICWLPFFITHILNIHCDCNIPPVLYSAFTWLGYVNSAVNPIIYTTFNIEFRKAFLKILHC
# Method: as §1, with “receptors. […]” for “receptors.”
# D2 receptors [8] = target: D2 receptors (Rattus norvegicus, UniProt P61169); assay: Dopamine D2 binding, rat
# Chain of D2 receptors (Rattus norvegicus, UniProt P61169) (P61169 whole entry): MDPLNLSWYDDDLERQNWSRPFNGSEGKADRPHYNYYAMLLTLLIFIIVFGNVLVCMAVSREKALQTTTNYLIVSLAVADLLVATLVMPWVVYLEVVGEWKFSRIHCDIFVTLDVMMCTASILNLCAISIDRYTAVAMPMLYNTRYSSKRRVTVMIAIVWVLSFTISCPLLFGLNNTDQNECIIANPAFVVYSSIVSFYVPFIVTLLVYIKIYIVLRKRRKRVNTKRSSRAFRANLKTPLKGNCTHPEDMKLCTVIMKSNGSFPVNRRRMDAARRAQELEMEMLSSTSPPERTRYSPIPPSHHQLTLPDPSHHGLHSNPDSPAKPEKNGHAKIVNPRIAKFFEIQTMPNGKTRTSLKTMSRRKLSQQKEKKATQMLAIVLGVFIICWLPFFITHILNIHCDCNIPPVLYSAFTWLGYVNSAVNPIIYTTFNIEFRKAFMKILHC
# Method: as §1
# M1 muscarinic receptor [9] = target: T2, M1 muscarinic receptor; settings: reference compounds; read-out: Ki of reference compounds, M1 binding assay; cited from earlier work
Ki (H1 histamine receptor [1]) [µM],Ki (H1 histamine receptor [2]) [µM],Ki (H1 histamine receptor [3]) [µM],Ki (M1 muscarinic receptor [4]) [µM],Ki (M2 muscarinic receptor) [µM],Ki (M3 muscarinic receptor) [µM],Ki (alpha 1 receptors) [µM],Ki (alpha 2 receptors) [µM],"Ki (Dopamine, D1 [5]) [µM]","Ki (Dopamine, D1 [6]) [µM]",Ki (D2 receptors [7]) [µM],Ki (D2 receptors [8]) [µM],SMILES,NREM (male Wistar rats; dose 3 mg/kg) [min],hERG at 10 micromolar (% blocking of the hERG channel) (hERG channel) [%],NREM (male Wistar rats; dose 30 mg/kg) [min],Ki (M1 muscarinic receptor [9]) [µM]
0.0403,0.0115,0.0237,> 10,> 10,> 10,> 10,> 10,> 10,> 10,> 10,> 10,CC(C)(CN1CCN(C2=Nc3ccccc3Oc3ccccc32)CC1)C(=O)O [Compound 1],39 ± 6,6.2,–,–
0.0768,–,–,> 10,> 10,> 10,1.96,> 10,1.93,–,1.59,–,Cc1ccc2c(c1)N=C(N1CCN(CC(C)(C)C(=O)O)CC1)c1cc(C)ccc1O2 [Compound 20],–,5.30,–,–
3.77,–,–,> 10,> 10,> 10,> 10,> 10,> 10,–,> 10,–,COc1ccc2c(c1)Oc1ccccc1C(N1CCN(CC(C)(C)C(=O)O)CC1)=N2 [Compound 32],–,1.60,–,–
0.0987,–,–,> 10,> 10,> 10,> 10,> 10,> 10,–,> 10,–,COc1ccc2c(c1)Oc1ccccc1N=C2N1CCN(CC(C)(C)C(=O)O)CC1 [Compound 39],–,61.40,–,–
0.0514,–,–,> 10,> 10,> 10,> 10,> 10,> 10,–,> 10,–,O=C(O)C1(CN2CCN(C3=Nc4ccccc4Oc4ccccc43)CC2)CC1 [Compound 2],–,19,–,–
0.217,–,–,> 10,> 10,> 10,> 10,> 10,1.73,–,0.222,–,O=C(O)C1(CN2CCN(C3=Nc4ccccc4Oc4ccc(Cl)cc43)CC2)CC1 [Compound 7],–,42.8,–,–
0.283,–,–,> 10,> 10,> 10,> 10,> 10,0.942,–,> 10,–,CC(C)(CN1CCN(C2=Nc3ccccc3Oc3ccc(O)cc32)CC1)C(=O)O [Compound 14],–,0.30,–,–
0.0395,–,–,> 10,> 10,> 10,> 10,> 10,6.8,–,3.16,–,Cc1ccc2c(c1)N=C(N1CCN(CC(C)(C)C(=O)O)CC1)c1ccccc1O2 [Compound 19],–,9.90,–,–
0.135,–,–,> 10,> 10,> 10,> 10,> 10,> 10,–,> 10,–,COc1ccc2c(c1)N=C(N1CCN(CC(C)(C)C(=O)O)CC1)c1cc(OC)ccc1O2 [Compound 23],–,8.90,–,–
0.0396,–,–,> 10,> 10,> 10,> 10,> 10,3.16,–,1.67,–,Cc1ccc2c(c1)C(N1CCN(CC(C)(C)C(=O)O)CC1)=Nc1ccccc1O2 [Compound 10],–,14,–,–
–,–,–,> 10,–,> 10,> 10,> 10,> 10,–,> 10,2.73,CC(C)(CN1CCN(C2=Nc3ccccc3Oc3ccc(F)cc32)CC1)C(=O)O [Compound 4],–,8,–,–
0.0228,0.0588,0.0317,> 10,> 10,> 10,> 10,> 10,> 10,> 10,1.87,> 10,CC(C)(CN1CCN(C2=Nc3ccccc3Oc3ccccc32)CC1)C(=O)NS(C)(=O)=O [Compound 40],–,5.6,43 ± 4,–
0.0278,–,–,> 10,> 10,> 10,0.148,0.966,1.04,–,0.17,–,COc1ccc2c(c1)C(N1CCN(CC(C)(C)C(=O)O)CC1)=Nc1cc(Br)ccc1O2 [Compound 51],–,32,–,–
–,–,–,–,–,–,–,–,–,–,–,–,C[N+]1(C)CCC(OC(=O)C(c2ccccc2)c2ccccc2)CC1 [4-DAMP methiodide],–,–,–,0.00027
